Columns and labels:
Experiment in all cases: Test E greenhouse herbicide test, pre- and postemergence
Assay type in all cases: in vivo
Conditions in all cases: Postemergence
kochia (Kochia scoparia) = system: kochia (Kochia scoparia)
Summary of the method: (§1)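 Seedlings reaching 2–18 cm (1- to 4-leaf stage) received foliar treatment, while seeds in silt loam received a soil surface spray; the vehicle in each case was a non-phytotoxic solvent mixture including surfactant. Visual scoring versus controls followed 14–21 d later on a 0–100 scale.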

[1] = system: barnyardgrass (Echinochloa crus-galli)
Summary of the method: as §1

[2] = system: ragweed (common ragweed, Ambrosia elatior)
Summary of the method: as §1

[3] = system: beggarticks (hairy beggarticks, Bidens pilosa)
Summary of the method: as §1

[4] = system: field bindweed (Convolvulus arvensis)
Summary of the method: as §1

[5] = system: arrowleaf sida (Sida rhombifolia)
Summary of the method: as §1

[6] = system: sandbur (southem sandbur, Cenchrus echinatus)
Summary of the method: as §1

[7] = system: panicum, fall (fall panicum, Panicum dichotomiflorum)
Summary of the method: as §1

[8] = 62 g ai/ha, scale 0 to 100 (0 no effect, 100 complete control)
[9] = 125 g ai/ha, scale 0 to 100 (0 no effect, 100 complete control)
[10] = 16 g ai/ha, visual, scale 0 no effect to 100 complete control
[11] = 31 g ai/ha, visual, scale 0 no effect to 100 complete control
[12] = 250 g ai/ha, scale 0 to 100 (0 no effect, 100 complete control)

SMILES	Plant response rating, Kochia (kochia (Kochia scoparia); [8])	Plant response rating, Kochia (kochia (Kochia scoparia); [9])	Plant response rating, Kochia (kochia (Kochia scoparia); [11])	Plant response rating, Barnyardgrass [1, 8]	Plant response rating, Barnyardgrass [1, 9]	Plant response rating, Barnyardgrass [1, 11]	Plant response rating, Ragweed [2, 8]	Plant response rating, Ragweed [2, 9]	Plant response rating, Ragweed [2, 11]	Plant response rating, Beggarticks [3, 8]	Plant response rating, Beggarticks [3, 9]	Plant response rating, Beggarticks [3, 11]	Plant response rating, Field Bindweed [4, 8]	Plant response rating, Field Bindweed [4, 9]	Plant response rating, Field Bindweed [4, 11]	Plant response rating, Arrowleaf Sida [5, 8]	Plant response rating, Arrowleaf Sida [5, 9]	Plant response rating, Arrowleaf Sida [5, 11]	Plant response rating, Sandbur [6, 9]	Plant response rating, Sandbur [6, 11]	other results
CC(=O)Oc1c(C)nn(C)c(=O)c1-c1c(C)cc(C)c2ccccc12 [Compound 99]	60	70	50	40	50	30	80	90	75	100	95	80	70	80	60	50	60	30	40	30	Plant response rating, Kochia (kochia (Kochia scoparia); [10]): 55; Plant response rating, Barnyardgrass [1, 10]: 40; Plant response rating, Ragweed [2, 10]: 50; Plant response rating, Beggarticks [3, 10]: 70; Plant response rating, Field Bindweed [4, 10]: 50; Plant response rating, Arrowleaf Sida [5, 10]: 10; Plant response rating, Sandbur [6, 10]: 20; Plant response rating, Panicum, Fall [7, 8]: 50; Plant response rating, Panicum, Fall [7, 9]: 70; Plant response rating, Panicum, Fall [7, 10]: 20; Plant response rating, Panicum, Fall [7, 11]: 30
Cc1nn(C)c(=O)c(-c2cccc3ccc(Br)cc23)c1O [Compound 126]	100	100	100	50	40	40	80	100	70	100	100	100	90	95	85	80	100	75	40	0	Plant response rating, Kochia (kochia (Kochia scoparia); [12]): 100; Plant response rating, Barnyardgrass [1, 12]: 30; Plant response rating, Ragweed [2, 12]: 100; Plant response rating, Beggarticks [3, 12]: 100; Plant response rating, Field Bindweed [4, 12]: 100; Plant response rating, Arrowleaf Sida [5, 12]: 85; Plant response rating, Sandbur [6, 12]: 40; Plant response rating, Panicum, Fall [7, 8]: 35; Plant response rating, Panicum, Fall [7, 9]: 30; Plant response rating, Panicum, Fall [7, 12]: 35; Plant response rating, Panicum, Fall [7, 11]: 10

From patent US10597388B2, “Pyridazinone herbicides” (FMC CORPORATION, priority 2014, dated 2020)
